# Measured values from patent publication US20250084409A1, “COMPOSITIONS AND METHODS FOR CAPPING RNAS” (Verve Therapeutics, Inc., priority 2022, published 2025).
# Where two headings read alike, the source gives them in different places.
# How the values were obtained:
# [1] = target: T1, T7 RNA polymerase (Escherichia phage T7, UniProt P00573); conditions: for mRNA production yield: ABE mRNA MA079, 4 mM analog, 90 minutes, UV absorption; for production yield for ABE encoding mRNA: ABE mRNA MA004, IVT with T7 polymerase, 37° C., about 1-4 hours, UV spectrometry
# [2] = test system: TNF-α, IFN-γ, IFN-α, IFN-β, MIP-1B, IP-10, IL-10, IL-6; assay: In vivo immunogenicity: serum cytokine and chemokine levels in mice; set-up: species or system mouse; conditions: LNPs 1 mg/kg and 3 mg/kg
# Procedure: (§1) LNPs are prepared and administered in vivo to mice as in Example 11(A,B). Blood is collected at appropriate time points, typically at intervals between 1-48 hours post-dose and terminal end point, and processed to serum or plasma per techniques well known in the art. Serum or plasma cytokine and chemokine levels are measured using V-PLEX cytokine and chemokine detection kits. Cytokine and chemokine levels are compared to animals treated with buffer alone as well as pre-dose sampling of the treatment animals. In some instances, the immune stimulation of capped mRNA is assessed after in vitro transfection to reporter cell lines such as HEK-Lucia RIG-I cell reporter model, which produces luciferase signal in the presence of IFN-stimulated response elements such as uncapped mRNA. This cell model is cultured and transfected as described in Example 7, and luciferase activity is measured using a luciferase activity kit and plate reader. It is known in the art that uncapped mRNA produces a RIG-I-dependent IFN immune response, and capped mRNA lessens this immune stimulation. […] The results of this example were compared using mRNA made with a commercially available 5′ end initiator, 1002a, as a reference.
# In vivo immunogenicity was quantified as described in Example 12. Mice were treated with LNPs at a level of 1 mg/kg and 3 mg/kg, and serum was collected 3 hours and 24 hours post-injection. […] For comparison, cytokine measurements were also completed for mRNA comprising commercially available 5′ end initiator 1002a.
# [3] = test system: Primary human hepatocytes; assay: Luciferase expression in primary human hepatocytes; format: cell-based; conditions: 6 hours after transfection, 106.3 ng of mRNA dose
# From the text: The harvested cell lysate was subjected to conditions to derive a quantifiable fluorescent signal. This signal was then compared to analog 1002a to determine how structural differences may be related to the changes in expression. Primary human hepatocytes were subjected to two different doses of mRNA encoding for the protein luciferase made using the indicated test analogs. A single RNA molecule may be interpreted by protein synthesis machinery multiple times, so an analog that may increase the frequency of interpretation may be desirable as a 5′ initiator. This frequency of interpretation, or translation efficiency, may be determined by measuring the amount of protein produced in a population of cells exposed to a known amount of RNA at a given point following that exposure. The duration of expression may also be assessed to determine how an analog may sustain the observed expression, as the RNA molecule is eventually decayed within the cell thereby destroying its protein-encoding capacity. […] Similar protein expression profiles was also observed at 24 hours post transfection (FIG. 17b).
# [4] = target: T7 polymerase (Escherichia phage T7, UniProt P00573); conditions: J. Mol. Biol. (2007) 370, 256-268; read-out: Kd of T7 polymerase for the first initiating guanosine; cited from earlier work
# [5] = target: T1, T7 RNA polymerase
# [6] = target: T1, T7 RNA polymerase; format: biochemical; conditions: for mRNA full-length purity: ABE mRNA MA004, capillary gel electrophoresis; for amount of full-length mRNA produced: initiator-to-NTP ratio ranging from 1:1 down to 1:5
# [7] = test system: RIG-I; assay: RIG-I activation in HEK-Lucia RIG-I reporter cells; format: cell-based
# Procedure: as §1
# RIG-I overexpressed reporter HEK293 cells were utilized to evaluate cap specific immune response. mRNA with different cap analogs were transfected to the reporter cells. This cell model is cultured and transfected as described in Example 7. The response was measured at 24 hours after transfection. RIG-I is a cytosolic pattern recognition receptor that is responsible for the type-1 interferon response and can respond to 5′ triphosphate of RNA.
# [8] = test system: cells; assay: Cas9 protein expression in cells (antibody detection); format: cell-based; conditions: 6 hours post transfection; low and high doses
# Procedure: Protein expression is directly assessed via antibody detection of the Cas9 protein. The measured signal is compared to that of a recombinant Cas9 of known concentration to derive the Y-axis value. […] This is consistent at both low and high doses at 6 hours post transfection. At 24 hours after transfection, the potency difference between the analogs was less pronounced, but the trend generally remained consistent.
# [9] = test system: NHP ANGPTL3; assay: In vivo ABE base editing in NHP liver (LNP, NGS); conditions: LNP with sgRNA targeting NHP ANGPTL3 and ABE mRNA, FIG. 8
# Procedure: Lipid nanoparticles (LNPs) are generated by microfluidic mixing using the Precision Nanosystems NanoAssemblr system according to the manufacturer's protocol, with some optimization for individual payloads. The resulting LNPs are filtered using 0.2-micron filters and stored at 4° C. or frozen at −80° C.
# LNPs used in these studies were prepared with sgRNA targeting ANGPTL3 and ABE encoding mRNAs with 5′ end region motifs as described in Example 11A, comprising chemically synthesized sgRNAs targeting the NHP ANGPTL3 genes and ABE8.8 mRNA in a 1:1 weight ratio. LNPs were administered to NHP (n=3 per group) by one single intravenous infusion in a total volume of 6 mL/kg. Livers were collected 16 days post dose for NGS measurements of editing efficiency. […]
# Paired-end reads are analyzed with the CRISPResso2 pipeline (Clement, K. et al., Nat. Biotech. 2019, 37, 224-226). Briefly, low-quality reads are filtered out, adapter sequences are trimmed from the reads, and the paired-end reads are merged and aligned to the amplicon sequence. The editing percentage is calculated as the number of reads supporting […], over the total number of aligned reads. For ABE, the editing percentage is calculated as the number of reads supporting […], over the total number of aligned reads. […]
# [10] = test system: HeLa lysate; assay: Translation of luciferase mRNA in HeLa lysate in vitro translation kit; format: biochemical; conditions: luminescence
# Procedure: HeLa cells are cultured in RPMI with 10% FBS at 37° C. under 5% CO2 atmosphere. Cells are plated into an appropriately sized well plate per manufacturer's recommended seeding conditions. After overnight incubation, cells are checked for monolayer formation and then transfected using a transfection agent such as MessengerMAX. Solution A: the desired amount of luciferase mRNA is diluted in OptiMEM and mixed with Solution B: MessengerMAX in OptiMEM. After mixing solutions A and B, the mixture is incubated at room temperature for 20 minutes, and then added dropwise to each well of cells. The cells are then incubated at 37° C. for 12-72 hours to allow for expression of mRNA into protein. Cells are harvested and prepared for measuring luciferase protein levels per Promega luciferase assay system protocol. […] For example, luciferase encoding mRNA with 5′ end region motif, 1007a, was added to a commercially available HeLa lysate in vitro translation kit to produce luciferase protein. Luciferase protein activity as measured by luminescent light production in the presence of a luciferin substrate, was measured with a luminescence-detecting plate reader. Relative light units measured per this assay are proportional to the amount of luciferase protein translated from mRNA. […]
# [11] = serum 24 hours post-injection, baseline = about pre-injection level
# T1 sequence (P00573 whole entry): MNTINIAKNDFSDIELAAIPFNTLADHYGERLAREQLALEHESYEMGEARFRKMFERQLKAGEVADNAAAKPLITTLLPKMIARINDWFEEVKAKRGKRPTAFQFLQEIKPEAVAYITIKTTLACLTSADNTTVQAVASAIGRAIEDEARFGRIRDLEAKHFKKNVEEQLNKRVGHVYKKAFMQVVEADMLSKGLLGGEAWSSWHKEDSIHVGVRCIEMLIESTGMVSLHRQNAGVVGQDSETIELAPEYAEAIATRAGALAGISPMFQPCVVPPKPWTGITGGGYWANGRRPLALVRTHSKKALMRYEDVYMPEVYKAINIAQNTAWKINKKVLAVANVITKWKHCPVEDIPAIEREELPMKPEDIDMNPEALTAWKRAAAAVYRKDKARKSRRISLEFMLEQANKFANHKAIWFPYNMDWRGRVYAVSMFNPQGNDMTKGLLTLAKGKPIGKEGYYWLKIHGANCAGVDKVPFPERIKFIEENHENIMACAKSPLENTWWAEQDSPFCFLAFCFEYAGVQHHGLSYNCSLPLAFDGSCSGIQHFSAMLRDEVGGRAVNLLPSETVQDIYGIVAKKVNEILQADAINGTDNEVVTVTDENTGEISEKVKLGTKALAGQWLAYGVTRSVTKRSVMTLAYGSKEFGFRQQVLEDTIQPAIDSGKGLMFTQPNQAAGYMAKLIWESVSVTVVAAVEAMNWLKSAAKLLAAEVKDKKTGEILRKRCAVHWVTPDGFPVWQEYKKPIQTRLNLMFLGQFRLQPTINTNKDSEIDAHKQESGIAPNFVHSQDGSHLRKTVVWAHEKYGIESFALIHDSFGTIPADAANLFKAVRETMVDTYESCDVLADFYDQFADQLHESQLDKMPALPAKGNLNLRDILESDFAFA
# Chain of T7 polymerase (P00573 whole entry): as above
SMILES,mRNA production yield [1],"cytokines (TNF-α, IFN-γ, IFN-α, IFN-β, MIP-1B, IP-10, IL-10, IL-6) ([2]; serum 3 hours post-injection)","cytokines (TNF-α, IFN-γ, IFN-α, IFN-β, MIP-1B, IP-10, IL-10, IL-6) [2, 11]",production yield for ABE encoding mRNA [1],mRNA full-length purity [6],amount of full-length mRNA produced [6],Cas9 expression [8],also measured
"COC1C(OP(=O)(O)OCC2OC(n3cnc4c(=O)[nH]c(N)nc43)C(O)C2O)C(COP(=O)(O)OP(=O)([O-])OP(=O)(O)OCC2OC(n3c[n+](Cc4ccc(Cl)cc4)c4c(=O)[nH]c(N)nc43)C(O)C2O)OC1n1cnc2c(N)ncnc21 (stereo not drawn) [compound 5231, 4-Cl-Bn7G(ppp) Am(p)G]",slightly lower,detectable,returned to baseline,,,,,
"COC1C(O[P@]([O-])(=S)OCC2OC(n3cnc4c(=O)[nH]c(N)nc43)C(O)C2O)C(COP(=O)(O)OP(=O)(O)OP(=O)(O)OCC2OC(n3c[n+](C)c4c(=O)[nH]c(N)nc43)C(O)C2O)OC1n1cnc2c(N)ncnc21 (stereo partly drawn) [1007a_D2, m^7G(ppp) Am(ps)G]",~4 mg/mL,detectable,returned to baseline,,,,,relative luciferase expression [3]: a little increased protein expression
Nc1nc2c(ncn2[C@@H]2O[C@H](COP(=O)(O)OP(=O)(O)OP(=O)(O)O)[C@@H](O)[C@H]2O)c(=O)[nH]1 [GTP],,,,,,,,Kd [4]: 2000 µM
"COC1C(OP(=O)(O)OCC2OC(n3cnc4c(=O)[nH]c(N)nc43)C(O)C2O)C(COP(=O)(O)OP(=O)([S-])OP(=O)(O)OCC2OC(n3c[n+](C)c4c(=O)[nH]c(N)nc43)C(O)C2O)OC1n1cnc2c(N)ncnc21 (stereo not drawn) [1107a, m^7G(ppsp) Am(p)G]",,,,about 3.3 mg per 1 ml of IVT reaction,about 86%,did not reduce,,capping efficiency ([5]; initiator-to-NTP ratio ranging from 1:1 down to 1:1.67): > 90%
"COC1C(O[P@@]([O-])(=S)OCC2OC(n3cnc4c(=O)[nH]c(N)nc43)C(O)C2O)C(COP(=O)(O)OP(=O)(O)OP(=O)(O)OCC2OC(n3c[n+](C)c4c(=O)[nH]c(N)nc43)C(O)C2O)OC1n1cnc2c(N)ncnc21 (stereo partly drawn) [1007a_D1, m^7G(ppp) Am(ps)G]",slightly lower,detectable,returned to baseline,,,,largely similar among most analogs except 1007a_D1 and 1007a,"RIG-I response ([7]; RIG-I overexpressed reporter HEK293 cells, 24 hours after transfection, FIG. 14): lowest RIG-I response; mRNA full-length purity (FLP) ([6]; ABE mRNA MA079, 4 mM analog, 90 minutes, electrophoretic separation): 79.4%"
"COC1C(OP([O-])(=S)OCC2OC(n3cnc4c(=O)[nH]c(N)nc43)C(O)C2O)C(COP(=O)(O)OP(=O)(O)OP(=O)(O)OCC2OC(n3c[n+](C)c4c(=O)[nH]c(N)nc43)C(O)C2O)OC1n1cnc2c(N)ncnc21 (stereo not drawn) [1007a, m^7G(ppp) Am(ps)G]",~4 mg/mL,detectable,returned to baseline,about 3.3 mg per 1 ml of IVT reaction,about 88%,did not reduce,largely similar among most analogs except 1007a_D1 and 1007a,"base editing efficacy compared to mRNAs with 1002a 5′ end region motif [9]: lower or similar base editing efficacy; capping efficiency ([5]; initiator-to-NTP ratio ranging from 1:1 down to 1:2.5): > 90%; RIG-I activity as compared to uncapped mRNA ([7]; HEK-Lucia RIG-I cell reporter model, FIG. 9): reduced RIG-I activity; RIG-I activation as a result of the chemical modifications to the cap structure ([7]; HEK-Lucia RIG-I cell reporter model, reference 1002a): did not appear to increase RIG-I activation; luciferase activity relative to mRNA with initiator 1002a [10]: around 2 ×"
